Measurements published in BindingDB's records for doi:10.3109/10799899109064686 (Center For Bio-Pharmaceutical Sciences, 1991).

Legend:
[1] = biological target: Gamma-aminobutyric acid receptor subunit alpha-1 (Rattus norvegicus, UniProt P62813)
[2] = biological target: Muscarinic acetylcholine receptor M3 (Rattus norvegicus, UniProt P08483)
[3] = biological target: 5-hydroxytryptamine receptor 1B (Rattus norvegicus, UniProt P28564)
[4] = biological target: Beta-1 adrenergic receptor (Rattus norvegicus, UniProt P18090)
[5] = biological target: Delta-type opioid receptor (Rattus norvegicus, UniProt P33533)
[6] = biological target: T1, Cysteinyl leukotriene receptor 1 (Cavia porcellus, UniProt Q2NNR5)
T1 sequence (Q2NNR5 whole entry): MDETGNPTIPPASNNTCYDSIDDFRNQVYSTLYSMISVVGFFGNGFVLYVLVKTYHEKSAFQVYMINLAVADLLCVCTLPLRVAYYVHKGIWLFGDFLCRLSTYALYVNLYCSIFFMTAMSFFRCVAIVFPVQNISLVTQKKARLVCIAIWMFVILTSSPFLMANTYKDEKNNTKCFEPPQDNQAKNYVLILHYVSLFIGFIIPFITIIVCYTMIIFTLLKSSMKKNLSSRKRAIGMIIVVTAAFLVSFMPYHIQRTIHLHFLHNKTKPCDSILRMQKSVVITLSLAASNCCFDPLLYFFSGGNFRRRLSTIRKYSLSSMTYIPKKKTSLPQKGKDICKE

[7] = biological target: D(2) dopamine receptor (Rattus norvegicus, UniProt P61169)
[8] = biological target: 5-hydroxytryptamine 1D receptor (Bos taurus, UniProt Q8MI13)
[9] = biological target: T2, Alpha-1A adrenergic receptor (Rattus norvegicus, UniProt P43140)
T2 sequence (P43140 whole entry): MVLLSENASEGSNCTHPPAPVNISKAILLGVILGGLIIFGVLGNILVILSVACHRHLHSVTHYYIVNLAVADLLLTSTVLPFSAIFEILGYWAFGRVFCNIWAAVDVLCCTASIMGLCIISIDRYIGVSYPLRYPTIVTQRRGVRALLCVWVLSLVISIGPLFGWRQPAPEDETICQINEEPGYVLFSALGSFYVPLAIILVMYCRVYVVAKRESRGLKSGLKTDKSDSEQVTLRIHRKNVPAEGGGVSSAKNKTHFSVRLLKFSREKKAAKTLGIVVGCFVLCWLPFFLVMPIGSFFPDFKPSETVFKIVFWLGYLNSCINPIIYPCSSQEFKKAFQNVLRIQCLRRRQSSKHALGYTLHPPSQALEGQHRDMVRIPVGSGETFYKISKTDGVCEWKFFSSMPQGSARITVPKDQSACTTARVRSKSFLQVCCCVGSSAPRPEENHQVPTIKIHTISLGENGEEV

[10] = biological target: T3, Muscarinic acetylcholine receptor M1 (Rattus norvegicus, UniProt P08482)
T3 sequence (P08482 whole entry): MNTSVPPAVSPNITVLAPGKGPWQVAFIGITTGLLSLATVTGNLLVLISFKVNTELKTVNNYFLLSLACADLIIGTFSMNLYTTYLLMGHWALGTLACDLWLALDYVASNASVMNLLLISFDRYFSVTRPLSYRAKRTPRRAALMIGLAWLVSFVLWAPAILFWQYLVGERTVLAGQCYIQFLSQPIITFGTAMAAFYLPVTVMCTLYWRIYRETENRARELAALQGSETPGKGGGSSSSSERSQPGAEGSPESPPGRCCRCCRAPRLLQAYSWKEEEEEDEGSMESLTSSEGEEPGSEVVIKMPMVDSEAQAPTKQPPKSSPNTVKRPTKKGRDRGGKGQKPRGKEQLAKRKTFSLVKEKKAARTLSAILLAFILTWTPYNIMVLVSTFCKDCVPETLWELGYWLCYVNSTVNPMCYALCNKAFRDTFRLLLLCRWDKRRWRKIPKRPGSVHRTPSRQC

[11] = biological target: Kappa-type opioid receptor (Rattus norvegicus, UniProt P34975)
[12] = biological target: T4, 5-hydroxytryptamine receptor 3A (Mus musculus, UniProt P23979)
T4 sequence (P23979 whole entry): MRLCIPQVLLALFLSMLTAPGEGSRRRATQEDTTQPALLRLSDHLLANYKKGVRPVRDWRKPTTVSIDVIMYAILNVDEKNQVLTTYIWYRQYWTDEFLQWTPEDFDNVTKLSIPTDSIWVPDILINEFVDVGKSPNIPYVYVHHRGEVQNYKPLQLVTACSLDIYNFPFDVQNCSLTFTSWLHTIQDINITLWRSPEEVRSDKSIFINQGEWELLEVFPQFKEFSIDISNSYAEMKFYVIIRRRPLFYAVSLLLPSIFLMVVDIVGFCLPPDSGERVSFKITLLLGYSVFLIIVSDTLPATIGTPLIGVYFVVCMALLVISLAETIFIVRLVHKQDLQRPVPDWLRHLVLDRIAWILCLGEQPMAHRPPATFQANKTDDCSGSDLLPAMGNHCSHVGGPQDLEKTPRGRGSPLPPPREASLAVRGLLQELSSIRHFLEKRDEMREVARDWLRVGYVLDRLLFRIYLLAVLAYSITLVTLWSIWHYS

[13] = biological target: 5-hydroxytryptamine receptor 2A (Rattus norvegicus, UniProt P14842)
Chain of 5-hydroxytryptamine receptor 2A (P14842 whole entry): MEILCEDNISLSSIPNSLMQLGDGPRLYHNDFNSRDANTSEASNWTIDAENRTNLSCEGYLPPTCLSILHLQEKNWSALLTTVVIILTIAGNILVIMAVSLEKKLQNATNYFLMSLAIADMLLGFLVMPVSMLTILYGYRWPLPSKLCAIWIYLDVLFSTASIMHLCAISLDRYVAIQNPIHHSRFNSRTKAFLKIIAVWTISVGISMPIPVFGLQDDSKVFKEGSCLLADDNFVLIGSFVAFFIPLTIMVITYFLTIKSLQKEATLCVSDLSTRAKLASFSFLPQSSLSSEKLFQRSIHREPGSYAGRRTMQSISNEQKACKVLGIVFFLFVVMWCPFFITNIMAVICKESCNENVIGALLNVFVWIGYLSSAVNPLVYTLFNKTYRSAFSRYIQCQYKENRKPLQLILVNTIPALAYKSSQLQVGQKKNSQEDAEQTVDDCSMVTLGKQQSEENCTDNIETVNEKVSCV

Chain of Muscarinic acetylcholine receptor M3 (P08483 whole entry): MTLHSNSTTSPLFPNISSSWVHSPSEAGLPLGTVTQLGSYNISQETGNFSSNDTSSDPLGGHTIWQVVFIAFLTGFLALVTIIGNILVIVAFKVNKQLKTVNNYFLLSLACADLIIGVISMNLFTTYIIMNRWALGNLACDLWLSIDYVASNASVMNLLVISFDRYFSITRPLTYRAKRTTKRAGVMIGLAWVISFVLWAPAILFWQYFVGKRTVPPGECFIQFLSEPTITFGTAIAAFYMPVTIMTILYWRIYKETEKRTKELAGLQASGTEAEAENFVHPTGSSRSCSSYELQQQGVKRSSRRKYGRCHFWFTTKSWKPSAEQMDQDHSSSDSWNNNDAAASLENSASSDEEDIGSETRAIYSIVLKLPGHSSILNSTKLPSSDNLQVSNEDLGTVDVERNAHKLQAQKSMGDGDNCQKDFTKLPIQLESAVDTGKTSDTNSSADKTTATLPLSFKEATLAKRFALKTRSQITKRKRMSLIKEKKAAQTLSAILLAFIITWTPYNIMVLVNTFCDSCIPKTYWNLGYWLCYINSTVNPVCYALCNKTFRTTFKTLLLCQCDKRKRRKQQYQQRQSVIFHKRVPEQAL
Chain of Delta-type opioid receptor (P33533 whole entry): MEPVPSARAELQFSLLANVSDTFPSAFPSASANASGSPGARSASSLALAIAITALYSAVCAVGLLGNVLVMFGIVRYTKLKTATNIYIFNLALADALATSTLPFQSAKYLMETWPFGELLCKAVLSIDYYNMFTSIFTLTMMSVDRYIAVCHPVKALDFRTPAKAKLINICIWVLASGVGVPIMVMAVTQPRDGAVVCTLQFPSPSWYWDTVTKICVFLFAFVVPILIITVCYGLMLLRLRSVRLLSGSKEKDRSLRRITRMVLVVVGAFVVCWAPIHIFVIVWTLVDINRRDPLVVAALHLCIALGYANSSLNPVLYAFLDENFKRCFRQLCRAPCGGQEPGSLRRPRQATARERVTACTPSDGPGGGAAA
Chain of 5-hydroxytryptamine receptor 1B (P28564 whole entry): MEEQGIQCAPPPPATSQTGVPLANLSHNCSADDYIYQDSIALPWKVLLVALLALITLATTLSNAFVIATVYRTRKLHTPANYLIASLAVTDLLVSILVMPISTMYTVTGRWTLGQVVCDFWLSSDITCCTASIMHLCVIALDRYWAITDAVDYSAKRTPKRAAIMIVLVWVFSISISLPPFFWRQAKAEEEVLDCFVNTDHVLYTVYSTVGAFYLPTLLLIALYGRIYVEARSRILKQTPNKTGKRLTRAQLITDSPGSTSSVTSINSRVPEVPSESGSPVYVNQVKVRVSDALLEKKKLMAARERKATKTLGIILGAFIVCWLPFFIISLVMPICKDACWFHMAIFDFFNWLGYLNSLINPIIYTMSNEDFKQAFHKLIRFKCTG
Chain of 5-hydroxytryptamine 1D receptor (Q8MI13 whole entry): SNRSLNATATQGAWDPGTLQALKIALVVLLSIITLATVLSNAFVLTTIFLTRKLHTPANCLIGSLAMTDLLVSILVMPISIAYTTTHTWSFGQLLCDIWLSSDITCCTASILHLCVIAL
Chain of D(2) dopamine receptor (P61169 whole entry): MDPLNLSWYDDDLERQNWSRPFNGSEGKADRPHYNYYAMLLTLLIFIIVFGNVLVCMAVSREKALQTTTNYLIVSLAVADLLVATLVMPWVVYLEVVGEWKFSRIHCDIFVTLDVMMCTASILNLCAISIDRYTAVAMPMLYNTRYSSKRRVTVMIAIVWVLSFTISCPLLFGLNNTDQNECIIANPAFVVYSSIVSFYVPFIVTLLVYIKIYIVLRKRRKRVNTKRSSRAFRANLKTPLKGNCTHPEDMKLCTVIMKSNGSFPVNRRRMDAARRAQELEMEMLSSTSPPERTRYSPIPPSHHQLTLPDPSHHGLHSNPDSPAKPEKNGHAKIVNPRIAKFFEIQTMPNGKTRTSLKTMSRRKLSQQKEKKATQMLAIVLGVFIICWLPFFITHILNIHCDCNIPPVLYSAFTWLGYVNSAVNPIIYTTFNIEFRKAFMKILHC
Chain of Beta-1 adrenergic receptor (P18090 whole entry): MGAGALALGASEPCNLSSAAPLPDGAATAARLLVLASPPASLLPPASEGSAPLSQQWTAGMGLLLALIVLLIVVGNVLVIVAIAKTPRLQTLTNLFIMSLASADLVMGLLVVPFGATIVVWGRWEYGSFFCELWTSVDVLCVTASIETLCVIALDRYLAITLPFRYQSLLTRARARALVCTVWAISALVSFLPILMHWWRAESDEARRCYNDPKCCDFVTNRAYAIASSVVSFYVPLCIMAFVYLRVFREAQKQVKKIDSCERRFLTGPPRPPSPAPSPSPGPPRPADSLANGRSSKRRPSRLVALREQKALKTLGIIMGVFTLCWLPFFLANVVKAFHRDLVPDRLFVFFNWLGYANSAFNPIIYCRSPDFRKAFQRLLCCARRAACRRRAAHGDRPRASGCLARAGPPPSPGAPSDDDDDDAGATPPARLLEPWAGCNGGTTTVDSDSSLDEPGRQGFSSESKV
Chain of Gamma-aminobutyric acid receptor subunit alpha-1 (P62813 whole entry): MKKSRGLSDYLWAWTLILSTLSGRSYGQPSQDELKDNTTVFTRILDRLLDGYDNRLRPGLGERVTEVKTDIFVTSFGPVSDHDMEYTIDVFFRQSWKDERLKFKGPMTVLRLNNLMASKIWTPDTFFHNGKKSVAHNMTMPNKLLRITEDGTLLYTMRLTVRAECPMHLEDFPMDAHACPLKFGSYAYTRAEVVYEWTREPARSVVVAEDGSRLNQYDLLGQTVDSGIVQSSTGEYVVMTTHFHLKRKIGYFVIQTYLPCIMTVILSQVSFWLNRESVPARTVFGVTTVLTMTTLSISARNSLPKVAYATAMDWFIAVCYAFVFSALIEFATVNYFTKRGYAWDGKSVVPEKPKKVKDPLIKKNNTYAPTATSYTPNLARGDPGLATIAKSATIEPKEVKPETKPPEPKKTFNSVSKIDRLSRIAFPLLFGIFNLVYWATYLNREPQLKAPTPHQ
Chain of Kappa-type opioid receptor (P34975 whole entry): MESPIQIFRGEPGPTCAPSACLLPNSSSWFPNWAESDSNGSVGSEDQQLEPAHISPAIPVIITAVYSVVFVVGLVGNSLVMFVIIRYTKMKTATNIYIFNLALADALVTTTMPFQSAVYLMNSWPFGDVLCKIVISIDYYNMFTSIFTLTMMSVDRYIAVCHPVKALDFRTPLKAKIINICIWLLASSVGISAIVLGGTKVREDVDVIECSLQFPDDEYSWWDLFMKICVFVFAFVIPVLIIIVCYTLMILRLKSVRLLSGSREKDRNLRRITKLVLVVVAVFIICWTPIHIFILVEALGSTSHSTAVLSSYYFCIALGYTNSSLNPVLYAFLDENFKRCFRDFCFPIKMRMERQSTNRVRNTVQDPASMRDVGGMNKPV

In the case of N=C(N)NC(=O)c1nc(Cl)c(N2CCCCCC2)nc1N, the Ki [1] is reported as over 10 µM, the Ki [2] is reported as 4.7 µM and the Ki [3] is reported as over 10 µM. The Ki [4] was over 10 µM, the Ki [5] was 1 µM and the Ki [6] was over 10 µM. For the same compound, the Ki [7] was over 10 µM, the Ki [8] was over 10 µM and the Ki [9] was over 10 µM. For the same compound, the Ki [10] was 3.6 µM, the Ki [11] was 3.9 µM and the Ki [12] was over 10 µM. It also gave a Ki [13] of 0.4 µM.

With N=C(N)NC(=O)c1nc(Cl)c(N)nc1N [3,5-diamino-N-carbamimidoyl-6-chloropyrazine-2-carboxamide] the Ki [1] was over 10 µM, the Ki [2] was over 10 µM and the Ki [3] was over 10 µM. The Ki [4] was over 10 µM, the Ki [5] was over 10 µM and the Ki [6] was over 10 µM. It also gave a Ki [7] of over 10 µM, a Ki [8] of over 10 µM and a Ki [9] of over 10 µM. It also gave a Ki [10] of over 10 µM, a Ki [11] of over 10 µM and a Ki [12] of over 10 µM. It also gave a Ki [13] of over 10 µM.

For NC(=NCc1ccccc1)NC(=O)c1nc(Cl)c(N)nc1N [NSC_108107], the Ki [1] was over 10 µM, the Ki [2] was 2.8 µM and the Ki [3] was over 10 µM. It also gave a Ki [4] of over 10 µM, a Ki [5] of over 10 µM and a Ki [6] of over 10 µM. It also gave a Ki [7] of 7.6 µM, a Ki [8] of over 10 µM and a Ki [9] of 2 µM. It also gave a Ki [10] of 2.9 µM, a Ki [11] of over 10 µM and a Ki [12] of 2.2 µM. It also gave a Ki [13] of 1.4 µM.
